Reference: article PMC9006239, “Synthesis of potent and selective HDAC6 inhibitors led to unexpected opening of a quinazoline ring” (RSC Advances, 2022)
Read-outs that look alike come from different tables or passages of the source.

Columns and labels:
HDAC6 = conditions: cited from earlier work
human HDAC6 = molecular target: T1, human HDAC6 (Homo sapiens, UniProt Q9UBN7); experiment: In vitro inhibitory activity on purified recombinant HDAC6 (fluorogenic peptide assay, Reaction Biology Corp.); format: biochemical; conditions: for selectivity for HDAC6 with respect to HDAC1: HDAC6 vs HDAC1, from the IC50 values of Table 2; for selectivity for HDAC6 with respect to HDAC8: HDAC6 vs HDAC8, from the IC50 values of Table 2; for IC50: purified recombinant enzyme, RHKK-Ac-AMC substrate, singlet 10-dose, 3-fold serial dilution
T1 construct: purchased Reaction Biology Corp. (contract assay)
T1 sequence (Q9UBN7 1-1215): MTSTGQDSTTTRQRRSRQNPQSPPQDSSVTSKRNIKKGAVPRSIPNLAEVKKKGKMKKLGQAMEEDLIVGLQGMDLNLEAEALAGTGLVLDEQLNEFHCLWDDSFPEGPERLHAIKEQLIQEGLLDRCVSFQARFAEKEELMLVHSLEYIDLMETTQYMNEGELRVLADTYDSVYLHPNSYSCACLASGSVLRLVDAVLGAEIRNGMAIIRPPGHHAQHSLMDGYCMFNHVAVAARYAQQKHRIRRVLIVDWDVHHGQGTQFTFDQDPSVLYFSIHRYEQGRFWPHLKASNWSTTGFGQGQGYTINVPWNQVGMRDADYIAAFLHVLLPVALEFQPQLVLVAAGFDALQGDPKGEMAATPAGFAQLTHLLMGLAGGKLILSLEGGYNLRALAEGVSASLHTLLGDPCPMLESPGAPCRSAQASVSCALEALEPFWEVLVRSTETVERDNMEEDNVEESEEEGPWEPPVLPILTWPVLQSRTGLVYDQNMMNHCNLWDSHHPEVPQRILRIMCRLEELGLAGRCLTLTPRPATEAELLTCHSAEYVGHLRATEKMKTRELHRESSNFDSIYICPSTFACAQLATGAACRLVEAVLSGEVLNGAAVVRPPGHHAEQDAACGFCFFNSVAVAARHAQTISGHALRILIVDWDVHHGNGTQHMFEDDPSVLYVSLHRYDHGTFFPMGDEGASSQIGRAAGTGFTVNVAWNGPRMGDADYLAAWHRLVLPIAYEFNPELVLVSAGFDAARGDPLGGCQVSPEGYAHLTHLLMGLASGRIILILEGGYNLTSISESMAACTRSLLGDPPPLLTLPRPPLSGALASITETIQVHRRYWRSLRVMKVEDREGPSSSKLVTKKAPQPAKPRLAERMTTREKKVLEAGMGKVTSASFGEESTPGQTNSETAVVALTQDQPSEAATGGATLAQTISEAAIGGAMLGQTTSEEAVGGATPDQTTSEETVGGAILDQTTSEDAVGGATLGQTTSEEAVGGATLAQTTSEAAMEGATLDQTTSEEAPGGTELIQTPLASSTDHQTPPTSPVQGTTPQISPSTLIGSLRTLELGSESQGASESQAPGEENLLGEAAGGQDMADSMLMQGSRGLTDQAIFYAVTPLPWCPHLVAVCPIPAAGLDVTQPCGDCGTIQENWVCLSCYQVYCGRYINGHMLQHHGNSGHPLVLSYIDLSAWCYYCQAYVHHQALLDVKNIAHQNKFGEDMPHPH
Experimental: Figure S1. […] All compounds were tested in singlet
IC50 values were calculated
Figure S2. […] All compounds were tested in singlet
Figure S3. […] All compounds were tested in singlet

human HDAC1 = human HDAC1 (Homo sapiens, UniProt Q13547); experiment: In vitro inhibitory activity on purified recombinant HDAC1 (fluorogenic peptide assay, Reaction Biology Corp.)
Chain of human HDAC1 (Q13547 whole entry): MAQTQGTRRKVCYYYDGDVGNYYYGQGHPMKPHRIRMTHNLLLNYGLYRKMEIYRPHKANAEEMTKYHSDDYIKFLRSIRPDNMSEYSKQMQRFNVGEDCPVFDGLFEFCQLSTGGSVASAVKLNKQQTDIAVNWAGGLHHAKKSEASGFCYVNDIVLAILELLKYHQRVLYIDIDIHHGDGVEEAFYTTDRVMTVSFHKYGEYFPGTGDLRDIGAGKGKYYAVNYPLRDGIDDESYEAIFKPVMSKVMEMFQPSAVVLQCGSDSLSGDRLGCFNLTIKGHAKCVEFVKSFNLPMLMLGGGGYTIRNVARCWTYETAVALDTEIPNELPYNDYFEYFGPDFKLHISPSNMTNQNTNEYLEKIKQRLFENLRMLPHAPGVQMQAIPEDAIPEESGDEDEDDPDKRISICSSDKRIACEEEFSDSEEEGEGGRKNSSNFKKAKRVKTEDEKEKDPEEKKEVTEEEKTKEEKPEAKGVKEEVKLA
Experimental: (§1) In vitro tests on HDAC6, HDAC1 and HDAC8 were performed at Reaction Biology Corp. with modalities described below. […] The compounds were dissolved in DMSO and tested with 3-fold serial dilution starting from 100 μM. The enzymatic assays were performed by adding HDAC6 and the ligand solutions in the reaction buffer described above. […] IC50 values were calculated by using the GraphPad Prism 4 program based on a sigmoidal dose–response equation. The blank (DMSO) value concentration was entered as 1.00 × 10^−12 M for curve fitting.
(§2) using the GraphPad Prism4 program based on a sigmoidal dose-response equation.

human HDAC8 = molecular target: T2, human HDAC8 (Homo sapiens, UniProt Q9BY41); experiment: In vitro inhibitory activity on purified recombinant HDAC8 (fluorogenic peptide assay, Reaction Biology Corp.)
T2 sequence (Q9BY41 1-377): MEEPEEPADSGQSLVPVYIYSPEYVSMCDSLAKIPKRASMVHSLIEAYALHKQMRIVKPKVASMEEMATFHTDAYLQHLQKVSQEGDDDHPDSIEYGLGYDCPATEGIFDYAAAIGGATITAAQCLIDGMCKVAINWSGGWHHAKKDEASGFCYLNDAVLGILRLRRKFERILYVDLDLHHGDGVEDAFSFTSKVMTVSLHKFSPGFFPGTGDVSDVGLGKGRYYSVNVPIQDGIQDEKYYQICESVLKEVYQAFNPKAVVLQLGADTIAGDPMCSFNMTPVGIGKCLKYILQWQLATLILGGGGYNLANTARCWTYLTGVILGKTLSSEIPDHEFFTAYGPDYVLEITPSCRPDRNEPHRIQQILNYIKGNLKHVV
Experimental: as §1, §2

[1] = known quinazoline-capped inhibitors, Fig. 1

Row | selectivity for HDAC6 with respect to HDAC1 (human HDAC6) | selectivity for HDAC6 with respect to HDAC8 (human HDAC6) | IC50 (human HDAC6) | melting point | IC50 (human HDAC1) | IC50 (human HDAC8) | Structure (SMILES) | IC50 (HDAC6; [1]) | other results
1 | – | – | – | – | – | – | COc1cc2nc(NCCCCCCC(=O)NO)nc(NC3CCN(C(C)C)CC3)c2cc1OC [Compound 5] | – | IC50 (HDAC6; most active quinazoline inhibitor reported so far): 12 nM
2 | > 18 000 fold | > 15 000 fold | 0.1 nM | < 264 °C (dec.) | 1.82 µM | 1560 nM | Nc1n[nH]c(-c2cc(Cc3ccc(C(=O)NO)cc3)ccc2NC(=O)Cc2ccc3c(c2)OCO3)n1 [Compound 18, 4-(3-(3-Amino-1H-1,2,4-triazol-5-yl)-4-(2-(benzo[d][1,3]dioxol-5-yl)acetamido)benzyl)-N-hydroxybenzamide] | – | –
3 | more than 12 000 fold | > 1000 fold | 0.5 nM | < 267 °C (dec.) | 6.08 µM | 653 nM | Nc1nc2c3ccc(Cc4ccc(C(=O)NO)cc4)cc3nc(Cc3ccc4c(c3)OCO4)n2n1 [Compound 11a, 4-((2-Amino-5-(benzo[d][1,3]dioxol-5-ylmethyl)-[1,2,4]triazolo[1,5-c]quinazolin-8-yl)methyl)-N-hydroxybenzamide] | – | –
4 | – | – | – | – | – | – | COc1ccc(N(C)c2nc(C)nc3ccccc23)cc1OCCCC(=O)NO [Compound 1] | 17 nM | –
5 | – | – | – | – | – | – | COc1ccc(N(C)c2nc(C)nc3ccccc23)cc1NC(=O)CCCC(=O)NO [Compound 3] | 35 nM | –
6 | – | – | – | – | – | – | COc1ccc(N(C)c2nc(C)nc3ccccc23)cc1NC(=O)CCC(=O)NO [Compound 2] | 16 nM | –
